Test results from patent US20070037816A1, “Bicyclic piperazines as metabotropic glutatmate receptor antagonists” (AstraZeneca AB, priority 2005, published 2007).

What follows are compounds tested against T1, human mGluR5d (Homo sapiens, UniProt P41594) (assay: Functional assessment of mGluR5 antagonism in cell lines expressing mGluR5d (FLIPR calcium mobilization / IP3 turnover; assay not given)). Conditions: cells expressing human mGluR5d; assay (FLIPR or IP3) not stated.
T1 construct: expressed in transfected cells; host or cells: GHEK (HEK cells expressing a glutamate transporter) for the IP3 assay
Format: cell-based
Description: The pharmacological properties of the compounds of the invention can be analyzed using standard assays for functional activity. Examples of glutamate receptor assays are well known in the art as described in for example Aramori et al., Neuron 8:757 (1992), Tanabe et al., Neuron 8:169 (1992), Miller et al., J. Neuroscience 15: 6103 (1995), Balazs, et al., J. Neurochemistry 69:151 (1997). The methodology described in these publications is incorporated herein by reference. Conveniently, the compounds of the invention can be studied by means of an assay that measures the mobilization of intracellular calcium, [Ca^2+]i in cells expressing mGluR5.
Intracellular calcium mobilization was measured by detecting changes in fluorescence of cells loaded with the fluorescent indicator fluo-3. Fluorescent signals were measured using the FLIPR system (Molecular Devices). A two addition experiment was used that could detect compounds that either activate or antagonize the receptor.
For FLIPR analysis, cells expressing human mGluR5d were seeded on collagen coated clear bottom 96-well plates with black sides and analysis of [Ca^2+]i mobilization was done 24 hours after seeding.
FLIPR experiments were done using a laser setting of 0.800 W and a 0.4 second CCD camera shutter speed. Each FLIPR experiment was initiated with 160 μL of buffer present in each well of the cell plate. After each addition of the compound, the fluorescence signal was sampled 50 times at 1 second intervals followed by 3 samples at 5 second intervals. Responses were measured as the peak height of the response within the sample period.
EC50 and IC50 determinations were made from data obtained from 8-point concentration response curves (CRC) performed in duplicate. Agonist CRC were generated by scaling all responses to the maximal response observed for the plate. Antagonist block of the agonist challenge was normalized to the average response of the agonist challenge in 14 control wells on the same plate.
We have validated a secondary functional assay for mGluR5d based on Inositol Phosphate (IP3) turnover. IP3 accumulation is measured as an index of receptor mediated phospholipase C turnover. GHEK cells stably expressing the human mGluR5d receptors were incubated with [3H] myo-inositol overnight, washed three times in HEPES buffered saline and pre-incubated for 10 minutes with 10 mM LiCl. Compounds (agonists) were added and incubated for 30 minutes at 37° C. Antagonist activity was determined by pre-incubating test compounds for 15 minutes, then incubating in the presence of glutamate (80 μM) or DHPG (30 μM) for 30 minutes. Reactions were terminated by the addition of perchloric acid (5%). Samples were collected and neutralized, and inositol phosphates were separated using Gravity-Fed Ion-Exchange Columns.
Functional Assessment of mGluR5 Antagonism in Cell Lines Expressing mGluR5d
The properties of the compounds of the invention can be analyzed using standard assays for pharmacological activity. Examples of glutamate receptor assays are well known in the art as described in for example Aramori et al, Neuron 8:757 (1992), Tanabe et al., Neuron 8:169 (1992), Miller et al, J. Neuroscience 15: 6103 (1995), Balazs, et al, J. Neurochemistry 69:151 (1997). The methodology described in these publications is incorporated herein by reference. Conveniently, the compounds of the invention can be studied by means of an assay (FLIPR) that measures the mobilization of intracellular calcium, [Ca^2+]i in cells expressing mGluR5 or another assay (IP3) that measures inositol phosphate turnover.
Cells expressing human mGluR5d as described in W097/05252 are seeded at a density of 100,000 cells per well on collagen coated clear bottom 96-well plates with black sides and experiments are done 24 h following seeding. […]

T1 sequence (P41594 21-942 isoform P41594-3 limits assumed): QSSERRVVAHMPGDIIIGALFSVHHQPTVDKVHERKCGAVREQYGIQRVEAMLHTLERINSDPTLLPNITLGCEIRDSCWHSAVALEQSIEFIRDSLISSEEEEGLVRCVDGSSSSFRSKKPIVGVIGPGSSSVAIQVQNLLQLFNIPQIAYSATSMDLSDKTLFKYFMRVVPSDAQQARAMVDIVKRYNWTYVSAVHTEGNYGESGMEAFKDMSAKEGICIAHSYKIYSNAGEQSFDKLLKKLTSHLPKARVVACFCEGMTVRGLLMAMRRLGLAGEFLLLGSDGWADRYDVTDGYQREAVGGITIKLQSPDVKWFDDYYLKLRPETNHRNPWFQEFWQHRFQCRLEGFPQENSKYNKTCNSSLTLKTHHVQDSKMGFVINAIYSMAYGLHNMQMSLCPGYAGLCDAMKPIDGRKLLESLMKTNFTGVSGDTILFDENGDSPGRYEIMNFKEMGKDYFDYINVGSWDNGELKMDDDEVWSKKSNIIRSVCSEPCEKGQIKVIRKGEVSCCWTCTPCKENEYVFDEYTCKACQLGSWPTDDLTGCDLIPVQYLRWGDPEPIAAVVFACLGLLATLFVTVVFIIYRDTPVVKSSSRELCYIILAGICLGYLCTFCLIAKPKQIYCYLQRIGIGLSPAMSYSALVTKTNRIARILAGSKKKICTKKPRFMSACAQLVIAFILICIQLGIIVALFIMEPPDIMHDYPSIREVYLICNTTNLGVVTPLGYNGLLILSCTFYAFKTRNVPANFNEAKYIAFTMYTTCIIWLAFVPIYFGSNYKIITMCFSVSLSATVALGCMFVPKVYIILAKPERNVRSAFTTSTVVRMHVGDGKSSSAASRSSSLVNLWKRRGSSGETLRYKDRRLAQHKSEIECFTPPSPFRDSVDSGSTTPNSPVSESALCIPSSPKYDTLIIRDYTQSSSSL

Row | SMILES | EC50
1 | N#Cc1cccnc1N1CCN2[C@@H](CC[C@@H]2c2cn(-c3cccc(F)c3)nn2)C1 (racemic) [Example 4.1, (±)-2-[(6R,8aS)-6-[1-(3-fluorophenyl)-1H-1,2,3-triazol4-yl]hexahydropyrrolo[1,2-a]pyrazin-2(1H)-yl]nicotinonitrile] | 219 nM
2 | N#Cc1ccc(N2CCN3[C@@H](CC[C@@H]3c3cc(-c4cccc(Cl)c4)on3)C2)nc1 (racemic) [Example 6.2, (±)-6-[(6R,8aS)-6-[5-(3-chlorolphenyl)isoxazol-3-yl]hexahydropyrrolo[1,2-a]pyrazin-2(1H)-yl]nicotinonitrile] | 2410 nM
3 | N#Cc1cccc(-c2cc([C@H]3CCC[C@H]4CN(c5nccnc5C#N)CCN43)no2)c1 (racemic) [Example 13.1, (±)-3-[(6R,9aS)-6-[5-(3-cyanophenyl)isoxazol-3-yl]octahydro-2H-pyrido[1,2-a]pyrazin-2-yl]pyrazine-2-carbonitrile] | 159 nM

Results, then the compound that gave them:

Row | EC50 | SMILES
4 | 10 nM | N#Cc1nccnc1N1CCN2[C@@H](CC[C@@H]2c2nnn(-c3cccc(Cl)c3)n2)C1 (racemic) [Example 5.1, (±)-3-[(6R,8aS)-6-[2-(3-chlorophenyl)-2H-tetrazol-5-yl]hexahydropyrrolo[1,2-a]pyrazin-2(1H)-yl]pyrazine-2-carbonitrile]
5 | 16 nM | Cc1cccc(-n2nnc([C@H]3CC[C@H]4CN(c5ncccc5C#N)CCN43)n2)c1 (racemic) [Example 5.4, (±)-2-[(6R,8aS)-6-[2-(3-methylphenyl)-2H-tetrazol-5-yl]hexahydropyrrolo[1,2-a]pyrazin-2(1H)-yl]nicotinonitrile]
6 | 377 nM | N#Cc1nccnc1N1CCN2[C@@H](CC[C@@H]2c2cc(-c3cccc(Cl)c3)no2)C1 (racemic) [Example 8.1, (±)-3-[(6R,8aS)-6-[3-(3-chlorophenyl)isoxazol-5-yl]hexahydropyrrolo[1,2-a]pyrazin-2(1H)-yl]pyrazine-2-carbonitrile]
